Tested on: ill-health symptoms of Lead intoxication
Assay: Inventor's trial-and-error self-administration of vitamins to alleviate Lead intoxication symptoms
Type: in vivo, human
Details: for soothing of Lead intoxication symptoms: Beta Carotene around 20,000 I.U. and vitamin E around 100 I.U. in the formula, Lead intoxication with no other health conditions
Description: I was already taking vitamins, so I started working with variety of vitamins in varying doses to alleviate the suffering. This was like an experiment on my body to find a balanced dose to alleviate Lead intoxication symptoms. It took me one and half decade to find the correct mix and proportion of vitamins. I will explain later why it took me so many years.
Vitamins dose was working correctly, however, I was taking certain quantity of milk (Calcium) in my diet so dose was adjusted with certain quantity of milk also. […] However, most of the symptoms as described earlier were alleviated with vitamins. In 2001, dizziness was extreme and glucose test was very close to borderline. Additional symptoms like some weight gain, elevated blood pressure and elevated cholesterol were noted. I realized immediately that I have done something wrong in working out the vitamin dose for Lead intoxication so I reversed engineering to figure out the dose with less quantity of milk. In 2005-2006 timeframe, I started gaining confidence that vitamin dose to cure Lead intoxication is absolutely correct and I decided to file the patent papers. […] I wish I could have this dose in 1990 then I didn't have to go through all the suffering and pain from 1990-2005, almost fifteen years. Therefore the vitamin dose or multi-vitamin formula for Lead intoxication is determined by trial and error method and is the result of fifteen years of work. Sometimes God makes the things happen for purpose and I was chosen the vehicle.
All these symptoms depend upon the amount of lead in body and the kind of diet and vitamins I was taking. I went through lot of ups and downs in figuring out the vitamin dose or formula to cure Lead induced ill-health symptoms. I gained so much experience by working trial and error methods on vitamins that I could simulate most of these symptoms in my body. […] I have shown this formula below as OM-50 dose, primarily because some vitamins' quantities are in 50 unit. Multiply all the ingredients by 2 will give OM-100, and divide by 2 will give OM-25, and so on.

Compound | effectiveness during heavy bleeding and/or elevated sugar level (Beta Carotene 30,000 I.U. in the formula, Lead intoxication plus heavy bleeding and/or elevated sugar level) | soothing of Lead intoxication symptoms
CC1=C(/C=C/C(C)=C/C=C/C(C)=C/C=C/C=C(C)/C=C/C=C(C)/C=C/C2=C(C)CCCC2(C)C)C(C)(C)CCC1 [Beta Carotene] | very effective | soothe very effectively
vitamin E | – | soothe very effectively

Source: patent US9308223B2, “Om vitamin formula” (priority 2008, dated 2016)
